Laboratory results from patent publication US10399978B2, “Imidazopyridine thioglycolic acid derivatives as potent inhibitors of human urate transporter 1” (SHANDONG UNIVERSITY, priority 2016, dated 2019).

Experiments:
[1] = system: mice with acute hyperuricemia; experiment: In vivo activity of reducing serum uric acid (acute hyperuricemia induced with xanthine and potassium oxonate); parameters: species or system Kunming mice; conditions: for BUA (blood uric acid concentration): hyperuricemic Kunming mice; for anti-gout activity, compared with positive control benzbromarone: batch 1, conclusion from Table 2
Procedure: All newly synthesized target compounds were primarily evaluated for their activities of reducing blood uric acid in vivo (mice). Benzbromarone and lesinurad were selected as positive control drugs.
Example 46. In Vivo Activity of Reducing Serum Uric Acid
• (1) Experimental animal: Kunming mice, provided by Experimental Animal Center of Shandong University • (2) Preparation of compounds: Compounds were dissolved in ethanol and CMC-Na. • (3) Modeling drugs: Xanthine and potassium oxonate • (4) Reference drugs: Benzbromarone and Lesinurad • (5) Test method: The model group consisted of mice with acute hyperuricemia induced with 0.2 mL xanthine intragastric injection and 0.2 mL potassium oxonate subcutaneous injection, and not treated with test compound.

[2] = batch 1, Model 1462.6 ± 194.3, Blank 377.2 ± 27.6
[3] = batch 2, Model 576.5 ± 120.5, Blank 262 ± 43.6, Blank (CMC-Na) 286 ± 90.9

| Compound | BUA (blood uric acid concentration) [1, 2] [µM] | also measured |
| --- | --- | --- |
| CCc1oc2ccccc2c1C(=O)c1cc(Br)c(O)c(Br)c1 [Benzbromarone, reference compound] | 762.5 ± 30.3 | – |
| CCOC(=O)CSc1nc2cccnc2n1-c1cccc2ccccc12 [Compound M1] | 1507.6 ± 229.2 | melting point: 116.5 to 117 °C |
| CCOC(=O)CCCSc1nc2cccnc2n1-c1cccc2ccccc12 [Compound M2] | 634.7 ± 97.7 | anti-gout activity, compared with positive control benzbromarone [1]: significant anti-gout activity |
| CCOC(=O)C(C)Sc1nc2cccnc2n1-c1cccc2ccccc12 (centres unmarked) [Compound M3] | 1321.5 ± 183.5 | – |
| CCOC(=O)C(C)(C)Sc1nc2cccnc2n1-c1cccc2ccccc12 [Compound M4] | 1363 ± 184.7 | – |
| O=C(O)CSc1nc2cccnc2n1-c1cccc2ccccc12 [Compound M5] | 1307.5 ± 195.3 | melting point: 129 to 130 °C |
| O=C(O)CCCSc1nc2cccnc2n1-c1cccc2ccccc12 [Compound M6] | 1342 ± 144.3 | – |
| CC(Sc1nc2cccnc2n1-c1cccc2ccccc12)C(=O)O (centres unmarked) [Compound M7] | 1307.2 ± 133.1 | – |
| CC(C)(Sc1nc2cccnc2n1-c1cccc2ccccc12)C(=O)O [Compound M8] | 1229 ± 150.2 | – |
| CCOC(=O)CSc1nc2cccnc2n1-c1ccc(C2CC2)c2ccccc12 [Compound Q1] | 1344.75 ± 287.5 | – |
| CCOC(=O)CCCSc1nc2cccnc2n1-c1ccc(C2CC2)c2ccccc12 [Compound Q2] | 1422.6 ± 194.4 | – |
| CCOC(=O)C(C)Sc1nc2cccnc2n1-c1ccc(C2CC2)c2ccccc12 (centres unmarked) [Compound Q3] | 672 ± 76.2 | anti-gout activity, compared with positive control benzbromarone [1]: significant anti-gout activity |
| CCOC(=O)C(C)(C)Sc1nc2cccnc2n1-c1ccc(C2CC2)c2ccccc12 [Compound Q4] | 1328.2 ± 163.8 | – |
| O=C(O)CSc1nc2cccnc2n1-c1ccc(C2CC2)c2ccccc12 [Compound Q5] | 824 ± 109.9 | – |
| O=C(O)CCCSc1nc2cccnc2n1-c1ccc(C2CC2)c2ccccc12 [Compound Q6] | 1490.7 ± 269.9 | – |
| CC(Sc1nc2cccnc2n1-c1ccc(C2CC2)c2ccccc12)C(=O)O (centres unmarked) [Compound Q7] | 763.2 ± 248.7 | – |
| CC(C)(Sc1nc2cccnc2n1-c1ccc(C2CC2)c2ccccc12)C(=O)O [Compound Q8] | 1448 ± 216.7 | – |

| Compound | BUA (blood uric acid concentration) [1, 2] [µM] | also measured |
| --- | --- | --- |
| CCOC(=O)CSc1nc2ncccc2n1-c1ccc(C2CC2)c2ccccc12 [Compound T1] | – | BUA (blood uric acid concentration) [1, 3]: 353.5 ± 35.6 µM |
| CCOC(=O)CCCSc1nc2ncccc2n1-c1ccc(C2CC2)c2ccccc12 [Compound T2] | – | BUA (blood uric acid concentration) [1, 3]: 334 ± 65.7 µM |
| CCOC(=O)C(C)Sc1nc2ncccc2n1-c1ccc(C2CC2)c2ccccc12 (centres unmarked) [Compound T3] | – | BUA (blood uric acid concentration) [1, 3]: 339 ± 29.8 µM |
| CCOC(=O)C(C)(C)Sc1nc2ncccc2n1-c1ccc(C2CC2)c2ccccc12 [Compound T4] | – | BUA (blood uric acid concentration) [1, 3]: 306 ± 46.8 µM |
| O=C(O)CSc1nc2ncccc2n1-c1ccc(C2CC2)c2ccccc12 [Compound T5] | – | BUA (blood uric acid concentration) [1, 3]: 342 ± 44.1 µM |
| O=C(O)CCCSc1nc2ncccc2n1-c1ccc(C2CC2)c2ccccc12 [Compound T6] | – | BUA (blood uric acid concentration) [1, 3]: 330 ± 29.1 µM |
| CC(Sc1nc2ncccc2n1-c1ccc(C2CC2)c2ccccc12)C(=O)O (centres unmarked) [Compound T7] | – | BUA (blood uric acid concentration) [1, 3]: 189.7 ± 67.8 µM |
| CC(C)(Sc1nc2ncccc2n1-c1ccc(C2CC2)c2ccccc12)C(=O)O [Compound T8] | – | BUA (blood uric acid concentration) [1, 3]: 295.2 ± 54 µM |
| CCOC(=O)CSc1nc2cccnc2n1-c1c(C)cc(C)cc1C [Compound X1] | 1255.2 ± 184 | – |
| CCOC(=O)CCCSc1nc2cccnc2n1-c1c(C)cc(C)cc1C [Compound X2] | 1107.7 ± 195.1 | – |
| CCOC(=O)C(C)Sc1nc2cccnc2n1-c1c(C)cc(C)cc1C (centres unmarked) [Compound X3] | 983.2 ± 122.6 | – |
| CCOC(=O)C(C)(C)Sc1nc2cccnc2n1-c1c(C)cc(C)cc1C [Compound X4] | 689.2 ± 53.4 | anti-gout activity, compared with positive control benzbromarone [1]: significant anti-gout activity |
| Cc1cc(C)c(-n2c(SCC(=O)O)nc3cccnc32)c(C)c1 [Compound X5] | 1310.2 ± 155.8 | – |
| Cc1cc(C)c(-n2c(SCCCC(=O)O)nc3cccnc32)c(C)c1 [Compound X6] | 655.2 ± 210.8 | anti-gout activity, compared with positive control benzbromarone [1]: significant anti-gout activity |
| Cc1cc(C)c(-n2c(SC(C)C(=O)O)nc3cccnc32)c(C)c1 (centres unmarked) [Compound X7] | 727.2 ± 150.7 | anti-gout activity, compared with positive control benzbromarone [1]: significant anti-gout activity |
| Cc1cc(C)c(-n2c(SC(C)(C)C(=O)O)nc3cccnc32)c(C)c1 [Compound X8] | 1288 ± 211.5 | – |
| O=C(O)CSc1nnc(Br)n1-c1ccc(C2CC2)c2ccccc12 [RDEA594, Lesinurad, reference compound] | – | BUA (blood uric acid concentration) [1, 3]: 409.5 ± 124.3 µM |
